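Assay format: 96-well plates, 48-hour exposure. Definition used: TGI = concentration required for complete inhibition of growth.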
Assays:
Assay in all cases: growth of human tumour cells (NCI), 48 h
SK-OV-3 ovarian = tested on: SK-OV-3 ovarian
SK-MEL-5 melanoma = tested on: SK-MEL-5 melanoma
MDA-MB-231 breast = tested on: MDA-MB-231 breast
SK-MEL-2 melanoma = tested on: SK-MEL-2 melanoma
RXF 393 renal = tested on: RXF 393 renal
UO-31 renal = tested on: UO-31 renal
HOP-62 NSCLC = tested on: HOP-62 NSCLC
NCI-H226 lung = tested on: NCI-H226 lung
DU-145 prostate = tested on: DU-145 prostate
HS 578T breast = tested on: HS 578T breast
HL-60(TB) leukemia = tested on: HL-60(TB) leukemia
CAKI-1 renal = tested on: CAKI-1 renal
A549 NSCLC = tested on: A549 NSCLC
COLO 205 colon = tested on: COLO 205 colon
SN12C renal = tested on: SN12C renal
MCF7 breast = tested on: MCF7 breast
SNB-19 CNS = tested on: SNB-19 CNS
NCI-H460 lung = tested on: NCI-H460 lung
MDA-MB-435 = tested on: MDA-MB-435
M14 melanoma = tested on: M14 melanoma
NCI-H522 lung = tested on: NCI-H522 lung
OVCAR-3 ovarian = tested on: OVCAR-3 ovarian
SNB-75 CNS = tested on: SNB-75 CNS
SF-268 CNS = tested on: SF-268 CNS
SW-620 colon = tested on: SW-620 colon
IGROV1 ovarian = tested on: IGROV1 ovarian
MALME-3M melanoma = tested on: MALME-3M melanoma
UACC-257 melanoma = tested on: UACC-257 melanoma
UACC-62 melanoma = tested on: UACC-62 melanoma
OVCAR-4 ovarian = tested on: OVCAR-4 ovarian
NCI-H23 lung = tested on: NCI-H23 lung
MDA-N = tested on: MDA-N
LOX IMVI melanoma = tested on: LOX IMVI melanoma
SR leukemia = tested on: SR leukemia
A498 renal = tested on: A498 renal
ACHN renal = tested on: ACHN renal
TK-10 renal = tested on: TK-10 renal
HOP-92 NSCLC = tested on: HOP-92 NSCLC
K-562 leukemia = tested on: K-562 leukemia
HCC-2998 colon = tested on: HCC-2998 colon
HT29 colon = tested on: HT29 colon
OVCAR-8 ovarian = tested on: OVCAR-8 ovarian
U251 CNS = tested on: U251 CNS
HCT-116 colon = tested on: HCT-116 colon
SK-MEL-28 melanoma = tested on: SK-MEL-28 melanoma
NCI/ADR-RES ovarian = tested on: NCI/ADR-RES ovarian
786-0 renal = tested on: 786-0 renal
SF-295 CNS = tested on: SF-295 CNS
SF-539 CNS = tested on: SF-539 CNS
PC-3 prostate = tested on: PC-3 prostate
HCT-15 colon = tested on: HCT-15 colon
CCRF-CEM leukemia = tested on: CCRF-CEM leukemia
BT-549 breast = tested on: BT-549 breast
OVCAR-5 ovarian = tested on: OVCAR-5 ovarian
EKVX NSCLC = tested on: EKVX NSCLC
T-47D breast = tested on: T-47D breast
KM12 colon = tested on: KM12 colon
MOLT-4 leukemia = tested on: MOLT-4 leukemia
RPMI-8226 leukemia = tested on: RPMI-8226 leukemia

Cc1nc2ccc(Cl)cc2c(-n2ccnc2)c1CCn1ccnc1 was tested, and the TGI (SK-OV-3 ovarian) was over 100 µM, the TGI (SK-MEL-5 melanoma) was 46.4 µM and the TGI (MDA-MB-231 breast) was 48.9 µM. For the same compound, the TGI (SK-MEL-2 melanoma) was 44.7 µM, the TGI (RXF 393 renal) was 53.1 µM and the TGI (UO-31 renal) was 74.6 µM. The TGI (HOP-62 NSCLC) was over 100 µM, the TGI (NCI-H226 lung) was 53.2 µM and the TGI (DU-145 prostate) was over 100 µM. It also gave a TGI (HS 578T breast) of 49.1 µM, a TGI (HL-60(TB) leukemia) of 62.7 µM and a TGI (CAKI-1 renal) of over 100 µM. For the same compound, the TGI (A549 NSCLC) was over 100 µM, the TGI (COLO 205 colon) was 41.5 µM and the TGI (SN12C renal) was over 100 µM. For the same compound, the TGI (MCF7 breast) was over 100 µM, the TGI (SNB-19 CNS) was over 100 µM and the TGI (NCI-H460 lung) was over 100 µM. For the same compound, the TGI (MDA-MB-435) was over 100 µM, the TGI (M14 melanoma) was over 100 µM and the TGI (NCI-H522 lung) was 70.9 µM. The TGI (OVCAR-3 ovarian) was over 100 µM, the TGI (SNB-75 CNS) was 72.8 µM and the TGI (SF-268 CNS) was over 100 µM. The TGI (SW-620 colon) was over 100 µM, the TGI (IGROV1 ovarian) was over 100 µM and the TGI (MALME-3M melanoma) was 97 µM. It also gave a TGI (UACC-257 melanoma) of 61 µM, a TGI (UACC-62 melanoma) of 62.5 µM and a TGI (OVCAR-4 ovarian) of over 100 µM. It also gave a TGI (NCI-H23 lung) of over 100 µM, a TGI (MDA-N) of 84.7 µM and a TGI (LOX IMVI melanoma) of over 100 µM. The TGI (SR leukemia) was 20.5 µM, the TGI (A498 renal) was 76.2 µM and the TGI (ACHN renal) was 83.6 µM. The TGI (TK-10 renal) was over 100 µM, the TGI (HOP-92 NSCLC) was 57.8 µM and the TGI (K-562 leukemia) was 89.3 µM. The TGI (HCC-2998 colon) was over 100 µM, the TGI (HT29 colon) was 41.7 µM and the TGI (OVCAR-8 ovarian) was 3.37 µM. It also gave a TGI (U251 CNS) of over 100 µM, a TGI (HCT-116 colon) of over 100 µM and a TGI (SK-MEL-28 melanoma) of 92.8 µM. The TGI (NCI/ADR-RES ovarian) was 6.03 µM, the TGI (786-0 renal) was 3.2 µM and the TGI (SF-295 CNS) was over 100 µM. The TGI (SF-539 CNS) was over 100 µM, the TGI (PC-3 prostate) was 72.1 µM and the TGI (HCT-15 colon) was over 100 µM. The TGI (CCRF-CEM leukemia) was 69.3 µM, the TGI (BT-549 breast) was 69.7 µM and the TGI (OVCAR-5 ovarian) was over 100 µM.
For Nc1ncnc2c1nnn2C1C=CC(CP(=O)(O)O)C1 (stereo not drawn), the TGI (SK-OV-3 ovarian) was over 100 µM, the TGI (SK-MEL-5 melanoma) was over 100 µM and the TGI (MDA-MB-231 breast) was over 100 µM. The TGI (SK-MEL-2 melanoma) was over 100 µM, the TGI (RXF 393 renal) was over 100 µM and the TGI (UO-31 renal) was over 100 µM. For the same compound, the TGI (HOP-62 NSCLC) was over 100 µM, the TGI (NCI-H226 lung) was over 100 µM and the TGI (DU-145 prostate) was over 100 µM. The TGI (HS 578T breast) was over 100 µM, the TGI (HL-60(TB) leukemia) was over 100 µM and the TGI (A549 NSCLC) was over 100 µM. For the same compound, the TGI (COLO 205 colon) was over 100 µM, the TGI (SN12C renal) was over 100 µM and the TGI (MCF7 breast) was over 100 µM. For the same compound, the TGI (SNB-19 CNS) was over 100 µM, the TGI (NCI-H460 lung) was over 100 µM and the TGI (M14 melanoma) was over 100 µM. The TGI (OVCAR-3 ovarian) was over 100 µM, the TGI (SF-268 CNS) was over 100 µM and the TGI (SW-620 colon) was over 100 µM. For the same compound, the TGI (IGROV1 ovarian) was over 100 µM, the TGI (MALME-3M melanoma) was over 100 µM and the TGI (EKVX NSCLC) was over 100 µM. It also gave a TGI (UACC-257 melanoma) of over 100 µM, a TGI (UACC-62 melanoma) of over 100 µM and a TGI (OVCAR-4 ovarian) of over 100 µM. For the same compound, the TGI (NCI-H23 lung) was over 100 µM, the TGI (MDA-N) was over 100 µM and the TGI (LOX IMVI melanoma) was over 100 µM. The TGI (ACHN renal) was over 100 µM, the TGI (TK-10 renal) was over 100 µM and the TGI (HCC-2998 colon) was over 100 µM. The TGI (T-47D breast) was over 100 µM, the TGI (HT29 colon) was over 100 µM and the TGI (KM12 colon) was over 100 µM. The TGI (OVCAR-8 ovarian) was over 100 µM, the TGI (U251 CNS) was over 100 µM and the TGI (HCT-116 colon) was over 100 µM. For the same compound, the TGI (SK-MEL-28 melanoma) was over 100 µM, the TGI (NCI/ADR-RES ovarian) was over 100 µM and the TGI (786-0 renal) was over 100 µM. The TGI (MOLT-4 leukemia) was over 100 µM, the TGI (SF-295 CNS) was over 100 µM and the TGI (SF-539 CNS) was over 100 µM. The TGI (PC-3 prostate) was over 100 µM, the TGI (HCT-15 colon) was over 100 µM and the TGI (RPMI-8226 leukemia) was over 100 µM. The TGI (OVCAR-5 ovarian) was over 100 µM.

Reference: PubChem BioAssay (NCI)
